Laboratory results from patent US7846944B2, “Pyrazolo-pyridinone compounds and methods of use thereof” (Amgen Inc., priority 2007, dated 2010).
Where two headings read alike, the source gives them in different places.

Experiments:
[1] = system: TNF-α secretion by LPS-treated THP1 cells; experiment: Lipopolysaccharide-activated THP1 cell TNF production assay; type: cell-based; settings: Homo sapiens, THP-1; LPS, 3 hours, THP1 cells; read-out: IC50 in the THP-1 cellular TNF production assay
Procedure: Lipopolysaccharide-Activated THP1 Cell TNF Production Assay
THP1 cells were resuspended in fresh THP1 media (RPMI 1640, 10% heat-inactivated FBS, 1×PGS, 1×NEAA, plus 30 μM βME) at a concentration of 1.5×10^6 cells per mL. One hundred microliters of cells per well were plated in a polystyrene 96-well tissue culture plate. 1.5 micrograms per mL of bacterial LPS was prepared in THP1 media and transferred to the first 11 columns of a 96-well polypropylene plate. Column 12 contained only THP1 media for the LO control. Compounds were dissolved in 100% DMSO and serially diluted 3 fold in a polypropylene 96-well microtiter plate (drug plate). Columns 6 and 12 were reserved as controls (HI controls and LO controls respectively) and contained only DMSO. 10 μL of LPS followed by one microliter of inhibitor compound from the drug plate was transferred to the cell plate. The treated cells were induced to synthesize and secrete TNF-α in a 37° C. humidified incubator with 5% CO2 for 3 hours. Fifty microliters of conditioned media was transferred to a 96-well MULTI-ARRAY™ 96-well small spot plate—custom coated with MAB610 containing 100 μL of 2× Read Buffer P supplemented with 0.34 nM AF210NA polyclonal Ab labeled with ruthenium (MSD-Sulfo-TAG™-NHS ester). After an overnight incubation at room temperature with shaking, the reaction was read on the Sector Imager™ 6000. […] The amount of secreted TNF-α in the presence of AMG compounds compared with that in the presence of DMSO vehicle alone (HI control) was calculated using the formula: % control (POC)=(cpd−average LO)/(average HI−averageLO)*100. Data (consisting of POC and inhibitor concentration in μM) was fitted to a 4-parameter equation (y=A+((B−A)/(1+((x/C)^D))), where A is the minimum y (POC) value, B is the maximum y (POC), C is the x (cpd concentration) at the point of inflection and D is the slope factor) using a Levenburg-Marquardt non-linear regression algorithm.

[2] = system: secreted IL-8 by whole blood activated with TNF-α; experiment: Inhibition of TNF-α induced IL-8 in 50% human whole blood; type: cell-based; settings: TNF-α (1 nM) induced IL-8, 50% human whole blood, read-out: WB TNF/IL8 IC50
Procedure: Inhibition of TNF-α Induced IL-8 in 50% Human Whole Blood
Test compounds were evaluated in vitro for the ability to inhibit the production of secreted IL-8 by whole blood activated with TNF-α. Fresh human whole blood was obtained from healthy, non-medicated volunteers in sodium heparin tubes.
Compound Dilution—Assay Procedure
100 ul heparinized whole blood is plated into wells of 96 well flat bottom plates. 50 ul of either 4× compound or DMSO control (Final DMSO concentration is 0.1%) are added to the appropriate wells. Plates are incubated for 1 hour at 37 degrees Celsius. 50 ul of 4×TNF-α ([…], for a final concentration of 1 nM) or control (media alone) is added to the appropriate wells (Total volume=200 ul). Plates are incubated overnight (16-18 hours). 100 ul of supernatant is collected and stored in 96-well round bottom polypropylene plates at −80 degrees Celsius or assayed immediately for IL-8.
Cytokines are measured on antibody (Ab) sandwich ECL based 96-well detection plates. 20 ul of supernatant are added to plate and plate is sealed and shaken at RT for 1 hour. 130 ul of detection Ab cocktail is added and plates are sealed and shaken for 1 hour in the dark at RT. Plates are read on MSD Sector HTS instrument. Data are analyzed and IC50 values generated using Activity Base and XI-fit programs.

recombinant human p38α = recombinant human p38α (Homo sapiens, UniProt Q16539); experiment: Purified and activated recombinant human p38α HTRF kinase assay; type: biochemical; settings: 1 nM p38α, 50 μM ATP, GST-ATF2 substrate, read-out: p38a IC50
Chain of recombinant human p38α (Q16539 whole entry): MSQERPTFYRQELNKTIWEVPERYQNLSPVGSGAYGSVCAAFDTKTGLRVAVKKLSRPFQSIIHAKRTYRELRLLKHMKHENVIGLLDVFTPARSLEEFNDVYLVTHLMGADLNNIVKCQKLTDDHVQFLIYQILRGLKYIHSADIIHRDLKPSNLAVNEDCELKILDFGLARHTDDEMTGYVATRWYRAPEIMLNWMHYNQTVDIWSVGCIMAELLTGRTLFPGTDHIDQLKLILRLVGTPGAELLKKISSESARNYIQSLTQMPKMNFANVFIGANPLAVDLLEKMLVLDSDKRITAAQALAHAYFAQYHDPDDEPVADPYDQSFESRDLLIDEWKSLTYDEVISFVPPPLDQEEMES
Procedure: Purified and Activated Recombinant Human p38α Assay
• Kinase Reaction Buffer: Kinase reaction buffer for p38α HTRF assays consists of 50 mM Tris-pH 7.5, 5 mM MgCl2, 0.1 mg/mL BSA, 100 μM Na3VO4 and 0.5 mM DTT. • HTRF Detection Buffer: HTRF detection buffer contains 100 mM HEPES-pH 7.5, 100 mM NaCl, 0.1% BSA, 0.05% Tween-20, and 10 mM EDTA. • Serial Dilution of Compounds: Compounds were dissolved in 100% DMSO and serially diluted (3 fold, 10 point) in a polypropylene 96-well microtiter plate (drug plate). The final starting concentration of compounds in the p38α enzymatic assays was 1 μM. Columns 6 and 12 (HI controls and LO controls respectively) in the drug plate were reserved as controls and contained only DMSO. • Kinase Reaction The p38α kinase reactions were carried out in a polypropylene 96-well black round bottom assay plate in total volume of 30 μL kinase reaction buffer. Appropriate concentration of purified and activated enzyme (recombinant human) was mixed with indicated concentration of ATP and 100 nM GST-ATF2-Avitag, in the presence or absence (HI control) of Compound. See table below for actual concentrations. In the absence of substrate, the background was measured as LO control. The reaction was allowed to incubate for 1 hour at RT. • Assay Reagent Concentrations: The final reagent concentrations were 1 nM p38α and 50 μM ATP. […] After 60 minutes incubation at room temperature, the assay plate was read in a Discovery Plate Reader. The wells were excited with coherent 320 nm light and the ratio of delayed ([…] post excitation) emissions at […] (native europium fluorescence) and 665 nm (europium fluorescence transferred to allophycocyanin—an index of substrate phosphorylation) was determined (Park et al, 1999). • Data Analysis: The proportion of substrate phosphorylated in the kinase reaction in the presence of compound compared with that phosphorylated in the presence of DMSO vehicle alone (HI control) was calculated using the formula: % control (POC)=(compound−average LO)/(average HI−average LO)*100. Data (consisting of POC and inhibitor concentration in μM) was fitted to a 4-parameter equation (y=A+((B−A)/(1+((x/C)^D))), where A is the minimum y (POC) value, B is the maximum y (POC), C is the x (compound concentration) at the point of inflection and D is the slope factor, using a Levenburg-Marquardt non-linear regression algorithm.
The inhibition constant (Ki) of the inhibitor was estimated from the IC50 (compound concentration at the point of inflection C) using the Cheng-Prussof equation: Ki=IC50/(1+S/Km), where S is the ATP substrate concentration, and Km is the Michaelis constant for ATP as determined experimentally. All results were expressed as the mean±the standard error of the mean. Data acquisition and non-linear regression algorithms were performed using Activity Base v5.2 and XL-fit software v4.1 respectively. All data was archived using Activity Base v5.2 software.

Molecule	IC50 [1]	IC50 ([2]; Homo sapiens)	IC50 [2]	IC50 (recombinant human p38α)
Cc1ccc(NC(=O)C2CC2)cc1-c1cc2cnn(-c3ccc(F)cc3F)c2n(C)c1=O [Example 16, N-(3-(1-(2,4-difluorophenyl)-7-methyl-6-oxo-6,7-dihydro-1H-pyrazolo[3,4-b]pyridin-5-yl)-4-methylphenyl)cyclopropanecarboxamide]	≤ 175 nM	≤ 100 nM	73.6 nM	
Cn1c(=O)c(-c2cc(C(=O)NC3CC3)ccc2CO)cc2cnn(-c3c(F)cccc3F)c21 [Example 32, N-cyclopropyl-3-(1-(2,6-difluorophenyl)-7-methyl-6-oxo-6,7-dihydro-1H-pyrazolo[3,4-b]pyridin-5-yl)-4-(hydroxymethyl)benzamide]	≤ 175 nM			21 nM
Cc1ccc(C(=O)NC2CC2)cc1-c1cc2cnn(-c3c(F)cccc3F)c2n(C)c1=S [Example 34, N-cyclopropyl-3-(1-(2,6-difluorophenyl)-7-methyl-6-thioxo-6,7-dihydro-1H-pyrazolo[3,4-b]pyridin-5-yl)-4-methylbenzamide]	≤ 175 nM			2.6 nM
Cc1ccc(C(=O)NC2CC2)cc1-c1cc2cnn(-c3ccc(F)cc3F)c2n(CC(O)CO)c1=O (stereo not shown) [Example 35, N-cyclopropyl-3-(1-(2,4-difluorophenyl)-7-(2,3-dihydroxypropyl)-6-oxo-6,7-dihydro-1H-pyrazolo[3,4-b]pyridin-5-yl)-4-methylbenzamide]	≤ 175 nM			34 nM
Cc1ccc(N)cc1-c1cc2cnn(-c3ccc(F)cc3F)c2n(C)c1=O [Example 37, 5-(5-amino-2-methylphenyl)-1-(2,4-difluorophenyl)-7-methyl-1,7-dihydro-6H-pyrazolo[3,4-b]pyridin-6-one]	≤ 175 nM	326 nM		
CCn1c(=O)c(-c2cc(C(=O)NC3CC3)ccc2C)cc2cnn(-c3ccc(F)cc3F)c21 [Example 46, N-cyclopropyl-3-(1-(2,4-difluorophenyl)-7-ethyl-6-oxo-6,7-dihydro-1H-pyrazolo[3,4-b]pyridin-5-yl)-4-methylbenzamide]	≤ 175 nM			4.9 nM
Cc1ccc(C(=O)NC2CC2)cc1-c1cc2cnn(S(=O)(=O)C3CC3)c2n(C)c1=O [Example 47, N-cyclopropyl-3-(1-(cyclopropylsulfonyl)-7-methyl-6-oxo-6,7-dihydro-1H-pyrazolo[3,4-b]pyridin-5-yl)-4-methylbenzamide]		662 nM		
Cc1ccc(C(=O)NC2CC2)cc1-c1cc2cnn(-c3ccc(F)cc3)c2n(C)c1=O [Example 52, N-cyclopropyl-3-(1-(4-fluorophenyl)-7-methyl-6-oxo-6,7-dihydro-1H-pyrazolo[3,4-b]pyridin-5-yl)-4-methylbenzamide]	≤ 175 nM			6.1 nM
Cn1c(=O)c(-c2cc(C(=O)NC3CC3)ccc2Cl)cc2cnn(-c3ccc(F)cc3)c21 [Example 53, 4-chloro-N-cyclopropyl-3-(1-(4-fluorophenyl)-7-methyl-6-oxo-6,7-dihydro-1H-pyrazolo[3,4-b]pyridin-5-yl)benzamide]	≤ 175 nM			6 nM
N-cyclopropyl-3-(1-(2,4-difluorophenyl)-7-methyl-6-thioxo-6,7-dihydro-1H-pyrazolo[3,4-b]pyridin-5-yl)-4-methylbenzenecarbothioamide [Example 51]			225 nM	

More lines, now with the values ahead:

IC50 [1]	IC50 ([2]; Homo sapiens)	IC50 [2]	IC50 (recombinant human p38α)	Molecule
	≥ 2500 nM			Cn1c(=O)c(-c2cc(C#N)ccc2Cl)cc2cnn(-c3c(F)cccc3F)c21 [Example 33, 4-chloro-3-(1-(2,6-difluorophenyl)-7-methyl-6-oxo-6,7-dihydro-1H-pyrazolo[3,4-b]pyridin-5-yl)benzonitrile]
≤ 175 nM	261 nM			Cc1ccc(NC(=O)NC2CC2)cc1-c1cc2cnn(-c3c(F)cccc3F)c2n(C)c1=O [Example 36, 1-cyclopropyl-3-(3-(1-(2,6-difluorophenyl)-7-methyl-6-oxo-6,7-dihydro-1H-pyrazolo[3,4-b]pyridin-5-yl)-4-methylphenyl)urea]
≤ 175 nM	≤ 100 nM	60 nM		Cc1ccc(N)cc1-c1cc2cnn(-c3c(F)cccc3F)c2n(C)c1=O [Example 39, 5-(5-amino-2-methylphenyl)-1-(2,6-difluorophenyl)-7-methyl-1,7-dihydro-6H-pyrazolo[3,4-b]pyridin-6-one]
	≥ 2500 nM			Cc1ccc(I)cc1-c1cc2cnn(-c3c(F)cccc3F)c2n(C)c1=O [Example 40, 1-(2,6-difluorophenyl)-5-(5-iodo-2-methylphenyl)-7-methyl-1,7-dihydro-6H-pyrazolo[3,4-b]pyridin-6-one]
≤ 175 nM	≥ 2500 nM			Cn1c(=O)c(-c2cc(C(=O)O)ccc2Cl)cc2cnn(-c3c(F)cccc3F)c21 [Example 42, 4-chloro-3-(1-(2,6-difluorophenyl)-7-methyl-6-oxo-6,7-dihydro-1H-pyrazolo[3,4-b]pyridin-5-yl)benzoic acid]
	≥ 2500 nM			Cc1ccc(I)cc1-c1cc2cnn(-c3ccc(F)cc3F)c2n(C)c1=O [Example 43, 1-(2,4-difluorophenyl)-5-(5-iodo-2-methylphenyl)-7-methyl-1,7-dihydro-6H-pyrazolo[3,4-b]pyridin-6-one]
≤ 175 nM	327 nM			Cn1c(=O)c(-c2cc(N)ccc2Cl)cc2cnn(-c3c(F)cccc3F)c21 [Example 48, 5-(5-amino-2-chlorophenyl)-1-(2,6-difluorophenyl)-7-methyl-1,7-dihydro-6H-pyrazolo[3,4-b]pyridin-6-one]
